This note sets out measurements from publication PMC7049213, “Nerylneryl diphosphate is the precursor of serrulatane, viscidane and cembrane-type diterpenoids in Eremophila species” (BMC Plant Biology, 2020).

What all share (assay): co-expression with SlCPT2 in E. coli and N. benthamiana, GC-MS
Holding throughout (type): cell-based
Holding throughout (details): NNPP formed in cells by SlCPT2; E. coli 18 °C, 48 h

In one assay the target is T1, ElTPS3 (Eremophila lucida, UniProt A0A6G9KVC7).
T1 construct: full length in N. benthamiana; TPS-a class I
T1 sequence (A0A6G9KVC7 entry or part of it): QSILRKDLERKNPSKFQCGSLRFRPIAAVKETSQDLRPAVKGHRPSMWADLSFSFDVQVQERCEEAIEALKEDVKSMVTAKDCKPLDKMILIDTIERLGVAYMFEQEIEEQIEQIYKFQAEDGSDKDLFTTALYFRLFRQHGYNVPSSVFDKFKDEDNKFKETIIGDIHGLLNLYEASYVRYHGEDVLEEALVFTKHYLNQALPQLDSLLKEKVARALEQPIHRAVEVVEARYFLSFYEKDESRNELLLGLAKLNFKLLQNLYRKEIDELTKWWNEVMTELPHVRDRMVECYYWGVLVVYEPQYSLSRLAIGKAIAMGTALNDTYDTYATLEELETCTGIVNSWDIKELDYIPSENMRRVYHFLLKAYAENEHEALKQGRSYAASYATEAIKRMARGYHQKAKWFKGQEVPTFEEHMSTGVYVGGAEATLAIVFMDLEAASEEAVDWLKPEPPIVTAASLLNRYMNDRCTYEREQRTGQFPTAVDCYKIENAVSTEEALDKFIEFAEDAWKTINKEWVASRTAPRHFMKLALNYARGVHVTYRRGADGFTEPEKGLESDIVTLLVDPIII

A further assay deals with T2, EdtTPS4 (Eremophila denticulata, UniProt A0A6G9KV06).
T2 construct: full length in N. benthamiana; TPS-a class I
T2 sequence (A0A6G9KV06 entry or part of it): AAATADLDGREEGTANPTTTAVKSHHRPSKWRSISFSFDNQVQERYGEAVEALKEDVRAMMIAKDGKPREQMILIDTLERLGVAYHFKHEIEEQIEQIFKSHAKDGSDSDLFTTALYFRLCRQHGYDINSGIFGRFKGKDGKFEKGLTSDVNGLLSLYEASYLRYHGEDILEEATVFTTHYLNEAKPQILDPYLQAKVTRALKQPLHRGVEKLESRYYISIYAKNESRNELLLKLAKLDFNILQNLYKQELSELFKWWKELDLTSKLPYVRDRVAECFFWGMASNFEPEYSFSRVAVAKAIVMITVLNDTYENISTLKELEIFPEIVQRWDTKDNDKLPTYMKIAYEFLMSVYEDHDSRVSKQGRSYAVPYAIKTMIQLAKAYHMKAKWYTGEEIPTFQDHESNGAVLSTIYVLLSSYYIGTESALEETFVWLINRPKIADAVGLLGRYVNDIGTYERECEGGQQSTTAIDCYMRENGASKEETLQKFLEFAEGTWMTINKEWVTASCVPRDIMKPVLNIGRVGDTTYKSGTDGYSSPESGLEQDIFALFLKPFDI

The target in another assay is T3, EdTPS22 (Eremophila drummondii, UniProt A0A6G9KSU3).
T3 construct: full length in N. benthamiana; TPS-a class I
T3 sequence (A0A6G9KSU3 entry or part of it): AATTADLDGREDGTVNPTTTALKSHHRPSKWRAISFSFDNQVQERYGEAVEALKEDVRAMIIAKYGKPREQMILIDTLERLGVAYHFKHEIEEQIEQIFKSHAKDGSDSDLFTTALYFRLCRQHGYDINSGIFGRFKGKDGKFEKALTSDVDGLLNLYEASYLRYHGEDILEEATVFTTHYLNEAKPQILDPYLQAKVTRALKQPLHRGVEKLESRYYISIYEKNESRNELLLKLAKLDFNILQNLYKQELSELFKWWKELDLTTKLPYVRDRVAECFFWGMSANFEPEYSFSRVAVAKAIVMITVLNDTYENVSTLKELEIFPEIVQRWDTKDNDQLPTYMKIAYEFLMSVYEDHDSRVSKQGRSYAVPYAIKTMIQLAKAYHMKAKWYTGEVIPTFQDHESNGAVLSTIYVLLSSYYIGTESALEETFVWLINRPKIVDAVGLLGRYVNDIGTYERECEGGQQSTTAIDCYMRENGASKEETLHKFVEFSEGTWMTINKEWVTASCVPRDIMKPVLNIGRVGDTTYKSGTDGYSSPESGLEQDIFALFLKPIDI

A further assay deals with T4, ElTPS31 (Eremophila lucida, UniProt A0A6G9KSS8).
T4 construct: full length in N. benthamiana; TPS-b class I
T4 sequence (A0A6G9KSS8 entry or part of it): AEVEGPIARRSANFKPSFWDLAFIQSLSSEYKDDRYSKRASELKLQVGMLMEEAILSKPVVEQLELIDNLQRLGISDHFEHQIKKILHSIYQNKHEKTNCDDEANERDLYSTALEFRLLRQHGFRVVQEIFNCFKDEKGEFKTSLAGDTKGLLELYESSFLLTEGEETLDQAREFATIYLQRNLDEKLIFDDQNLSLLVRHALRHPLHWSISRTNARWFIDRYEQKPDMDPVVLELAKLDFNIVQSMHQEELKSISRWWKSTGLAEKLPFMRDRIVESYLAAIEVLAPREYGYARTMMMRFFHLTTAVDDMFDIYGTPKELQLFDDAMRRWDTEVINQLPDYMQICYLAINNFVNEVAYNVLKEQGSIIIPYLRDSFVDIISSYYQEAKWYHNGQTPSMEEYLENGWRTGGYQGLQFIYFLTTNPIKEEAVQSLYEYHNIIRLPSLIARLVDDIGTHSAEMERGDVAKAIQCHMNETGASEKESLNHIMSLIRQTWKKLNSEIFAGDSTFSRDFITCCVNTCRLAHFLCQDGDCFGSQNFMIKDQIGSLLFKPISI

As to `CC(C)=CCC/C(C)=C\CC/C(C)=C\CC/C(C)=C\COP(=O)(O)OP(=O)(O)O` [nerylneryl diphosphate], the “co-expression with SlCPT2 in E. coli and N. benthamiana, GC-MS” value at ElTPS3 is on record as “co-expression of either one of ElTPS3, ElTPS31, EdtTPS4 or EdTPS22 with NNPP-forming SlCPT2”; on EdtTPS4 it was “co-expression of either one of ElTPS3, ElTPS31, EdtTPS4 or EdTPS22 with NNPP-forming SlCPT2”; at EdTPS22, “co-expression of either one of ElTPS3, ElTPS31, EdtTPS4 or EdTPS22 with NNPP-forming SlCPT2”; on ElTPS31 it was “co-expression of either one of ElTPS3, ElTPS31, EdtTPS4 or EdTPS22 with NNPP-forming SlCPT2”.
